Experiment in all cases: AK assay 384-well format, Prestwick library screening
Assay [1] deals with A. baumannii strain 98-37-09. Type of assay: cell-based, Acinetobacter baumannii. The settings on record: 50 μM final drug concentration; for fold induction at 50 µM: Acinetobacter baumannii, 983709, 3 h.
In assay [2] the test system is K. pneumoniae. The assay is classed as cell-based, Klebsiella pneumoniae. The settings on record: 50 μM final drug concentration; for fold induction at 50 µM: Klebsiella pneumoniae, 3 h.
In assay [3] the test system is E. cloacae. Type of assay: cell-based, Enterobacter cloacae. The following applies: 50 μM final drug concentration; for fold induction at 50 µM: Enterobacter cloacae, 3 h.
The test system of assay [4] is E. coli. Type of assay: cell-based, Escherichia coli. The following applies: 50 μM final drug concentration; for fold induction at 50 µM: Escherichia coli, 3 h.
The subject of assay [5] is S. aureus strain USA300-0114. The assay is classed as cell-based, Staphylococcus aureus. The following applies: 50 μM final drug concentration; for fold induction at 50 µM: Staphylococcus aureus, USA300, 3 h.
In assay [6] the test system is E. faecium. Type of assay: cell-based, Enterococcus faecium. The following applies: 50 μM final drug concentration; for fold induction at 50 µM: Enterococcus faecium, 3 h.
Assay [7] has as its system P. aeruginosa. Type of assay: cell-based, Pseudomonas aeruginosa. The settings on record: 50 μM final drug concentration; for fold induction at 50 µM: Pseudomonas aeruginosa, 3 h.
Setting [8] is: cutoff for positive-scoring molecules 3-fold increase, read-out: AK-based Prestwick Library Screening Results, A. baumannii (fold increase in extracellular AK activity).
[9] abbreviates: cutoff for positive-scoring molecules 3-fold increase, read-out: AK-based Prestwick Library Screening Results, K. pneumoniae (fold increase in extracellular AK activity).
Where [10] appears, read: cutoff for positive-scoring molecules 3-fold increase, read-out: AK-based Prestwick Library Screening Results, E. cloacae (fold increase in extracellular AK activity).
[11] abbreviates: cutoff for positive-scoring molecules 3-fold increase, read-out: AK-based Prestwick Library Screening Results, E. coli (fold increase in extracellular AK activity).
Where [12] appears, read: cutoff for positive-scoring molecules 3-fold increase, read-out: AK-based Prestwick Library Screening Results, S. aureus (fold increase in extracellular AK activity).
Setting [13] is: cutoff for positive-scoring molecules 3-fold increase, read-out: AK-based Prestwick Library Screening Results, E. faecium (fold increase in extracellular AK activity).
[14] abbreviates: cutoff for positive-scoring molecules 3-fold increase, read-out: AK-based Prestwick Library Screening Results, P. aeruginosa (fold increase in extracellular AK activity).
[15] abbreviates: 384-well format, cutoff for positive-scoring molecules 3-fold increase, read-out: AK-based Prestwick Library Screening Results, A. baumannii (increase in extracellular AK activity).
The mark [16] stands for this setting: 384-well format, cutoff for positive-scoring molecules 3-fold increase, read-out: AK-based Prestwick Library Screening Results, K. pneumoniae (increase in extracellular AK activity).
[17] abbreviates: 384-well format, cutoff for positive-scoring molecules 3-fold increase, read-out: AK-based Prestwick Library Screening Results, E. cloacae (increase in extracellular AK activity).
The mark [18] stands for this setting: 384-well format, cutoff for positive-scoring molecules 3-fold increase, read-out: AK-based Prestwick Library Screening Results, E. coli (increase in extracellular AK activity).
[19] abbreviates: 384-well format, cutoff for positive-scoring molecules 3-fold increase, read-out: AK-based Prestwick Library Screening Results, S. aureus (increase in extracellular AK activity).
[20] abbreviates: 384-well format, cutoff for positive-scoring molecules 3-fold increase, read-out: AK-based Prestwick Library Screening Results, E. faecium (increase in extracellular AK activity).
Setting [21] is: 384-well format, cutoff for positive-scoring molecules 3-fold increase, read-out: AK-based Prestwick Library Screening Results, P. aeruginosa (increase in extracellular AK activity).

SMILES strings stand for the structures. Where two headings read alike, the source gives them in different places.

With `CC(=O)N(CC(O)CN(C(C)=O)c1c(I)c(C(=O)NCC(O)CO)c(I)c(C(=O)NCC(O)CO)c1I)c1c(I)c(C(=O)NCC(O)CO)c(I)c(C(=O)NCC(O)CO)c1I` (centres unmarked) [Iodixanol], the fold induction at 50 µM is 1 in assay [1] (setting [8]); 1 in assay [2] (setting [9]); 1.5 in assay [3] ([…], read-out: AK-based Prestwick Library Screening Results, E. cloacae (fold increase in extracellular AK activity)); 1.3 in assay [4] ([…], read-out: AK-based Prestwick Library Screening Results, E. coli (fold increase in extracellular AK activity)); 1.3 in assay [5] ([…], read-out: AK-based Prestwick Library Screening Results, S. aureus (fold increase in extracellular AK activity)); 1.1 in assay [6] ([…], read-out: AK-based Prestwick Library Screening Results, E. faecium (fold increase in extracellular AK activity)). Also, in assay [7] ([…], read-out: AK-based Prestwick Library Screening Results, P. aeruginosa (fold increase in extracellular AK activity)), the fold induction at 50 µM was 1.2.
In the case of `CC(=O)N(CC(O)CO)c1c(I)c(C(=O)NCC(O)CO)c(I)c(C(=O)NCC(O)CO)c1I` (centres unmarked) [Iohexol], the fold induction at 50 µM in assay [1] (planktonic A. baumannii, cutoff for positive-scoring molecules 3-fold increase, read-out: AK-based Prestwick Library Screening Results, A. baumannii (increase in extracellular AK activity)) turned out to be 0.9; in assay [2] (planktonic K. pneumoniae, cutoff for positive-scoring molecules 3-fold increase, read-out: AK-based Prestwick Library Screening Results, K. pneumoniae (increase in extracellular AK activity)) it was 0.7; in assay [3] (planktonic E. cloacae, cutoff for positive-scoring molecules 3-fold increase, read-out: AK-based Prestwick Library Screening Results, E. cloacae (increase in extracellular AK activity)) it was 1.1; in assay [4] (planktonic E. coli, cutoff for positive-scoring molecules 3-fold increase, read-out: AK-based Prestwick Library Screening Results, E. coli (increase in extracellular AK activity)) it was 1; in assay [5] (planktonic S. aureus, cutoff for positive-scoring molecules 3-fold increase, read-out: AK-based Prestwick Library Screening Results, S. aureus (increase in extracellular AK activity)), 0.7; in assay [6] (planktonic E. faecium, cutoff for positive-scoring molecules 3-fold increase, read-out: AK-based Prestwick Library Screening Results, E. faecium (increase in extracellular AK activity)), 0.9. Besides, the fold induction at 50 µM in assay [7] (planktonic P. aeruginosa, cutoff for positive-scoring molecules 3-fold increase, read-out: AK-based Prestwick Library Screening Results, P. aeruginosa (increase in extracellular AK activity)) was determined as 0.8.
For the compound `C[C@H](O)C(=O)Nc1c(I)c(C(=O)NC(CO)CO)c(I)c(C(=O)NC(CO)CO)c1I` [Iopamidol], the fold induction at 50 µM was found to be 1.2 in assay [1] (setting [8]); 1.2 in assay [2] (setting [9]); 1.4 in assay [3] (setting [10]); 1.2 in assay [4] (setting [11]); 1.3 in assay [5] (setting [12]); 1 in assay [6] (setting [13]). In addition, the fold induction at 50 µM in assay [7] (setting [14]) is 1.2.
Take `CCC(Cc1c(I)cc(I)c(N)c1I)C(=O)O` (centres unmarked) [Iopanoic acid]: the fold induction at 50 µM in assay [1] (setting [8]) stood at 0.6; in assay [2] (setting [9]), 0.6; in assay [3] (setting [10]) it was 9.6; in assay [4] (setting [11]) it was 0.6; in assay [5] (setting [12]), 0.4; in assay [6] (setting [13]) it was 0.9. Besides, the fold induction at 50 µM in assay [7] (setting [14]) was found to be 0.6.
For `COCC(=O)Nc1c(I)c(C(=O)NCC(O)CO)c(I)c(C(=O)N(C)CC(O)CO)c1I` (centres unmarked) [Iopromide], the fold induction at 50 µM was found to be 1.1 in assay [1] (setting [8]); 1.1 in assay [2] (setting [9]); 1.4 in assay [3] (setting [10]); 1.2 in assay [4] (setting [11]); 1.3 in assay [5] (setting [12]); 1 in assay [6] (setting [13]). Further, the fold induction at 50 µM in assay [7] (setting [14]) was 1.2.
As to `O=C(NCC(O)CO)c1c(I)c(C(=O)NCC(O)CO)c(I)c(N(CCO)C(=O)CO)c1I` (centres unmarked) [Ioversol], the fold induction at 50 µM in assay [1] (setting [8]) came out at 1.3; in assay [2] (setting [9]), 1.2; in assay [3] (setting [10]), 1.4; in assay [4] (setting [11]), 1.2; in assay [5] (setting [12]), 1.2; in assay [6] (setting [13]) it was 1. Also, in assay [7] (setting [14]), the fold induction at 50 µM stood at 1.2.
Consider `CC(C)[N+]1(C)[C@@H]2CC[C@H]1CC(OC(=O)C(CO)c1ccccc1)C2.[Br-]` (some centres unmarked) [Ipratropium bromide], for which the “AK-based Prestwick Library Screening Results, A. baumannii (increase in extracellular AK activity)” value in assay [1] (planktonic A. baumannii, […]) is 0.6. For the same compound, in assay [2] (planktonic K. pneumoniae, […]), the “AK-based Prestwick Library Screening Results, K. pneumoniae (increase in extracellular AK activity)” value came to 0.6. The “AK-based Prestwick Library Screening Results, E. cloacae (increase in extracellular AK activity)” value in assay [3] (planktonic E. cloacae, […]) is recorded as 0.8. The “AK-based Prestwick Library Screening Results, E. coli (increase in extracellular AK activity)” value in assay [4] (planktonic E. coli, […]) was found to be 0.6. For the same compound, the “AK-based Prestwick Library Screening Results, S. aureus (increase in extracellular AK activity)” value in assay [5] (planktonic S. aureus, […]) amounted to 0.7. In assay [6] (planktonic E. faecium, […]), the “AK-based Prestwick Library Screening Results, E. faecium (increase in extracellular AK activity)” value was found to be 0.9. The “AK-based Prestwick Library Screening Results, P. aeruginosa (increase in extracellular AK activity)” value in assay [7] (planktonic P. aeruginosa, […]) turned out to be 0.8.
`Cc1cc(C(=O)NNCc2ccccc2)no1` [Isocarboxazid]: the fold induction at 50 µM in assay [1] (setting [8]) was determined as 1.1; in assay [2] (setting [9]), 1.1; in assay [3] (setting [10]) it was 1.5; in assay [4] (setting [11]) it was 1.1; in assay [5] (setting [12]) it was 1.5; in assay [6] (setting [13]), 1. The fold induction at 50 µM in assay [7] (setting [14]) stood at 1.1.
In the case of `Clc1ccc(C(Cn2ccnc2)OCc2c(Cl)cccc2Cl)c(Cl)c1` (centres unmarked) [Isoconazole], the fold induction at 50 µM in assay [1] (setting [15]) was determined as 5.6; in assay [2] (setting [16]), 1.4; in assay [3] (setting [17]) it was 1.7; in assay [4] (setting [18]), 1.8; in assay [5] (setting [19]) it was 5.2; in assay [6] (setting [20]), 1.8. Moreover, the fold induction at 50 µM in assay [7] (setting [21]) is 1.3.
As for `COc1ccc2c(c1O)-c1c(OC)c(OC)cc3c1[C@H](C2)N(C)CC3` [Isocorydine (+)], the “AK-based Prestwick Library Screening Results, A. baumannii (increase in extracellular AK activity)” value in assay [1] (planktonic A. baumannii, cutoff for positive-scoring molecules 3-fold increase) is given as 0.9. In addition, the “AK-based Prestwick Library Screening Results, K. pneumoniae (increase in extracellular AK activity)” value in assay [2] (planktonic K. pneumoniae, cutoff for positive-scoring molecules 3-fold increase) is 0.7. Besides, in assay [3] (planktonic E. cloacae, cutoff for positive-scoring molecules 3-fold increase), the “AK-based Prestwick Library Screening Results, E. cloacae (increase in extracellular AK activity)” value turned out to be 1.3. Moreover, the “AK-based Prestwick Library Screening Results, E. coli (increase in extracellular AK activity)” value in assay [4] (planktonic E. coli, cutoff for positive-scoring molecules 3-fold increase) turned out to be 0.9. Moreover, the “AK-based Prestwick Library Screening Results, S. aureus (increase in extracellular AK activity)” value in assay [5] (planktonic S. aureus, cutoff for positive-scoring molecules 3-fold increase) was 0.7. Also, the “AK-based Prestwick Library Screening Results, E. faecium (increase in extracellular AK activity)” value in assay [6] (planktonic E. faecium, cutoff for positive-scoring molecules 3-fold increase) came to 0.9. The “AK-based Prestwick Library Screening Results, P. aeruginosa (increase in extracellular AK activity)” value in assay [7] (planktonic P. aeruginosa, cutoff for positive-scoring molecules 3-fold increase) is on record as 0.8.
Take `CC(=O)OCC(=O)[C@@]1(O)CC[C@H]2[C@@H]3CCC4=CC(=O)C=C[C@]4(C)[C@@]3(F)[C@@H](O)C[C@@]21C` [Isoflupredone acetate]: the fold induction at 50 µM in assay [1] (setting [15]) was 0.4; in assay [2] (setting [16]), 0.5; in assay [3] (setting [17]), 0.4; in assay [4] (setting [18]), 0.5; in assay [5] (setting [19]), 0.4; in assay [6] (setting [20]) it was 0.9. For the same compound, in assay [7] (setting [21]), the fold induction at 50 µM worked out at 0.4.

The values are drawn from patent US10004701B2, “Methods and compositions for treating infection” (UNIVERSITY OF ROCHESTER, priority 2012, dated 2018).
